A value given as a limit tells only on which side of the number the result lay.

A word on the Ki: it is the equilibrium dissociation constant of an inhibitor or competing ligand from its target.

What all share (set-up): species or system Lederbergia lenta
For assay [1], the target named is Subtilisin BL (Bacillus lentus, UniProt P29599, M222C).
The target of assay [2] is T1, Subtilisin BL (Bacillus lentus, UniProt P29599).
T1 sequence (P29599 whole entry): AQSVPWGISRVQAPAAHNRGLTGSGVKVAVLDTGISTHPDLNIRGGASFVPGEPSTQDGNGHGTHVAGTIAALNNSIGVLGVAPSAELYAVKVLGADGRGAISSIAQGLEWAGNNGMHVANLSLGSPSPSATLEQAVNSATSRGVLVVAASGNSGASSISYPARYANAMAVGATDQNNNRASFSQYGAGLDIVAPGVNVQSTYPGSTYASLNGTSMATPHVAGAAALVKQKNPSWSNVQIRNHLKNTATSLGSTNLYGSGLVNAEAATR
The experiment in a line: Competitive inhibition of Subtilisin BL wild type enzyme from Bacillus lentus.

Assay [3] deals with Subtilisin BL (Bacillus lentus, UniProt P29599, M222S).

With `OB(O)c1cccc(-c2ccccc2)c1`, the inhibition constant Ki was determined as 31 µM in assay [1], 327 µM in assay [2] and 69 µM in assay [3].
In the same order, the values of `OB(O)c1ccc(Cl)cc1Cl` are 18 µM, 9.2 µM and 8 µM.
The like results for `Nc1cccc(B(O)O)c1` were, in that order, 204 µM, 150 µM and 73 µM.
The like results for `OB(O)c1ccc(Br)cc1` were, in that order, 23 µM, 23 µM and 10 µM.
In the case of `COc1ccc(B(O)O)cc1`, the results for the Ki in assay [1], in assay [2] and in assay [3] were 757 µM, 577 µM and 310 µM, respectively.
In the same order, the values of `OB(O)CCc1ccc(Cl)cc1` are 233 µM, 325 µM and 110 µM.
Take `OB(O)CCc1ccc2ccccc2c1`: the values for the Ki in assay [1], in assay [2] and in assay [3] were above 1000 µM, 1580 µM and above 1000 µM, respectively.
Regarding `COc1ccc(CCB(O)O)cc1`, the Ki in assay [1] turned out to be 314 µM; in assay [2], 986 µM; in assay [3], 219 µM.
In the same order, the values of `OB(O)c1ccccc1` [PHENYLBORONIC ACID] are 155 µM, 141 µM and 96 µM.

The record behind these values is ChEMBL document CHEMBL1129206, “Probing the specificity of the S1 binding site of M222 mutants of subtilisin B. lentus with boronic acid inhibitors” (Bioorg Med Chem Lett, 1996).
